Laboratory results published in paper PMC12037410, “Pharmacological targeting of BMAL1 modulates circadian and immune pathways” (Nature Chemical Biology, 2025).

Biological target: BMAL1 (Homo sapiens, UniProt O00327)
Parameters: PASB domain (residues 338–449); Protein thermal shift (PTS) fragment screen on recombinant human BMAL1(PASB), shift of melting temperature
Conditions: dTmB; binder

Chain of BMAL1 (O00327 338-449): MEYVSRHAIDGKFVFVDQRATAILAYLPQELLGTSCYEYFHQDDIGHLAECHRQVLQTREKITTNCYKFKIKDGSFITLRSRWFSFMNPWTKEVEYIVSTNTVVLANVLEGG

Structure (SMILES)	Bmal1(PASB) dTmB [°C]
CC(=O)N(CCC(=O)O)c1ccccc1 [Prestw-Frag-2487, Compound 222]	0.04
c1ccc2cnccc2c1 [Prestw-Frag-2493, Compound 131]	-0.12
COc1ccc(O)cc1O [Prestw-Frag-2499, Compound 11]	0.28
c1cnccn1 [Prestw-Frag-2501, Compound 209]	0.00
CC(=O)c1ccc(O)cc1O [Prestw-Frag-2506, Compound 162]	0.21
OCc1ccc(O)cc1 [Prestw-Frag-2532, Compound 453]	-0.16
c1ccc(C2CCNCC2)cc1 [Prestw-Frag-2537, Compound 310]	-0.53
S=c1[nH]c2ccccc2[nH]1 [Prestw-Frag-2539, Compound 1]	6.28
O=C(O)c1cccnc1 [Prestw-Frag-2541, Compound 64]	-0.10
O=c1[nH]snc1N1CCOCC1 [Prestw-Frag-2562, Compound 37]	-0.14
ClC1(Cl)CC1c1ccccc1 (stereo not drawn) [Prestw-Frag-2566, Compound 328]	0.06
O=C(O)CNC(=O)c1ccccc1 [Prestw-Frag-2576, Compound 196]	0.18
O=C(O)COc1ccccc1 [Prestw-Frag-2577, Compound 147]	0.25
NC(=O)COc1ccccc1 [Prestw-Frag-2578, Compound 235]	-0.19
O=C(O)Cc1ccccc1 [Prestw-Frag-2579, Compound 132]	-0.05
NC(=O)Cc1ccccc1 [Prestw-Frag-2580, Compound 73]	-0.74
NC(=O)c1ccncc1 [Prestw-Frag-2587, Compound 181]	0.25
Oc1cccc2cccnc12 [Prestw-Frag-2592, Compound 119]	-0.26
Clc1cccc2ncccc12 [Prestw-Frag-2593, Compound 66]	-0.75
OC1c2ccccc2CCc2ccccc21 [Prestw-Frag-2600, Compound 464]	-1.43
c1ccc(CCn2ccnc2)cc1 [Prestw-Frag-2608, Compound 366]	-0.49
c1ccc(Cn2ccnc2)cc1 [Prestw-Frag-2620, Compound 329]	-0.49
c1ccc(C(c2ccccc2)n2cncn2)cc1 [Prestw-Frag-2645, Compound 443]	-2.46
N#CC1(c2ccc(F)cc2)CCCCC1 [Prestw-Frag-2647, Compound 433]	-0.64
CC1(c2ccccc2)NC(=O)NC1=O (stereo not drawn) [Prestw-Frag-2652, Compound 273]	-0.17
Cc1ccc(C#N)c(=O)[nH]1 [Prestw-Frag-2669, Compound 177]	-0.34

Structure (SMILES)	Bmal1(PASB) dTmB [°C]
O=C1CCCc2[nH]ccc21 [Prestw-Frag-2675, Compound 219]	0.11
O=C(O)CCc1ncc(-c2ccccc2)o1 [Prestw-Frag-2693, Compound 126]	0.10
Cc1nc(-c2ccccc2)c(-c2ccccc2)o1 [Prestw-Frag-2695, Compound 471]	-2.25
COc1ccc(C(C)=O)c(O)c1 [Prestw-Frag-2701, Compound 250]	0.06
Oc1ccccc1C1CCCC1 [Prestw-Frag-2706, Compound 472]	-2.14
CN1C(=O)CCC1=O [Prestw-Frag-2713, Compound 293]	0.17
NC(N)=NC(N)=Nc1ccc(Cl)cc1 [Prestw-Frag-2722, Compound 143]	-0.89
CCCOc1ccc(C(=O)OCC)cc1N [Prestw-Frag-2724, Compound 416]	-1.52
CS(=O)(=O)Nc1ccccc1 [Prestw-Frag-2755, Compound 281]	-0.10
O=c1ccn([C@H]2C[C@H](O)[C@@H](CO)O2)c(=O)[nH]1 [Prestw-Frag-2769, Compound 275]	0.09
CCN(CC)CCOC(=O)C1(c2ccccc2)CCCC1 [Prestw-Frag-2774, Compound 413]	-1.85
c1ccc2c3c([nH]c2c1)CCCC3 [Prestw-Frag-2780, Compound 46]	-0.19
CCNC(=O)c1cccnc1 [Prestw-Frag-2794, Compound 205]	0.17
COC(=O)c1c[nH]c2ccccc12 [Prestw-Frag-2799, Compound 456]	-0.14
OC1CCN(c2ccccc2F)CC1 [Prestw-Frag-2803, Compound 151]	-0.09
Cc1ccccc1Nc1ncccc1C(=O)O [Prestw-Frag-2806, Compound 441]	0.29
O=C(O)c1cccnc1Nc1cccc(Cl)c1 [Prestw-Frag-2807, Compound 229]	-0.34
NCCCOc1cccc(CN2CCCCC2)c1 [Prestw-Frag-2808, Compound 156]	-1.04
Oc1cccc(CN2CCCCC2)c1 [Prestw-Frag-2809, Compound 115]	-0.43
CCNC(=O)c1ccc(Cl)cc1 [Prestw-Frag-2818, Compound 347]	-0.36
Nc1cccc(O)c1 [Prestw-Frag-2826, Compound 83]	-0.56
C[C@@H](O)c1cc(C(F)(F)F)cc(C(F)(F)F)c1 [Prestw-Frag-2849, Compound 236]	-0.34
Clc1cccc(N2CCNCC2)c1Cl [Prestw-Frag-2853, Compound 42]	-1.63
O=C1CCc2ccc(O)cc2N1 [Prestw-Frag-2854, Compound 80]	-0.98
c1ccc(C(c2ccccc2)n2ccnc2)cc1 [Prestw-Frag-2868, Compound 465]	-6.29
c1ccc(-c2nn[nH]n2)cc1 [Prestw-Frag-2887, Compound 426]	0.51

Structure (SMILES)	Bmal1(PASB) dTmB [°C]
Oc1cc(Cl)c(Cl)cc1Cl [Prestw-Frag-2898, Compound 59]	-0.02
O=C(c1ccccc1)c1ccc(Br)cc1 [Prestw-Frag-2912, Compound 22]	-1.94
CC(C)(C)OC(=O)/C=C/c1ccccc1 [Prestw-Frag-2947, Compound 382]	-0.17
c1ccc(C2CNCCO2)cc1 (stereo not drawn) [Prestw-Frag-2958, Compound 322]	-0.55
COc1ccc(CC(=O)O)cc1 [Prestw-Frag-2960, Compound 158]	0.16
Nc1nc2c(s1)CCCC2 [Prestw-Frag-2972, Compound 480]	-5.59
CCOc1ccccc1OCC1CNCCO1 (stereo not drawn) [Prestw-Frag-2992, Compound 332]	-0.48
CCOc1ccccc1O [Prestw-Frag-2995, Compound 314]	-0.47
c1ccc(-n2ccc3ccccc32)cc1 [Prestw-Frag-3011, Compound 447]	-0.07
CNS(=O)(=O)Cc1ccc2[nH]cc(CCN)c2c1 [Prestw-Frag-3017, Compound 50]	0.72
c1ccc2nccnc2c1 [Prestw-Frag-3033, Compound 315]	0.23
O=C1c2nccnc2C(O)N1c1ccc(Cl)cn1 (stereo not drawn) [Prestw-Frag-3046, Compound 93]	-0.98
Cc1ccc(N)c(C#N)c1 [Prestw-Frag-3060, Compound 394]	-0.18
OCCc1ccc(Cl)cc1 [Prestw-Frag-3062, Compound 418]	0.02
O=C1c2ccc(Cl)cc2CCc2cccnc21 [Prestw-Frag-3073, Compound 431]	-4.79
CCN(CC)C(=O)/C=C/c1ccccc1 [Prestw-Frag-3088, Compound 429]	-1.63
O=C(O)/C=C/c1cnc[nH]1 [Prestw-Frag-3090, Compound 19]	-1.08
OCc1ccc(F)cc1F [Prestw-Frag-3100, Compound 349]	0.05
OCCn1cncn1 [Prestw-Frag-3101, Compound 350]	0.19
CCCCc1nc(Cl)c(CO)[nH]1 [Prestw-Frag-3114, Compound 336]	0.07
CCN(CC)CCNC(=O)c1ccc(N)c(Cl)c1 [Prestw-Frag-3120, Compound 278]	-0.15
c1ccc2c(c1)CCCN2 [Prestw-Frag-3137, Compound 43]	0.06
Fc1cccnc1N1CCCC1 [Prestw-Frag-3150, Compound 24]	-0.14
COc1ccc2c(c1)CCCC2 [Prestw-Frag-3188, Compound 32]	-0.52
Nc1nc(N)nc(-c2ccccc2)n1 [Prestw-Frag-3190, Compound 387]	-0.27
O=C(Cc1ccccc1F)C1CC1 [Prestw-Frag-3198, Compound 60]	-1.49
